Test results reported in PubChem BioAssay (NCI).
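Interpolation was linear, between the two tested concentrations surrounding the appropriate level; five concentrations were tested over 48 hours in 96-well plates. The concentration for 50% growth inhibition is given as GI50. The concentration for full growth arrest is given as TGI.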

Tests used:
Test in all cases: inhibition of tumour cell growth, NCI panel, 48 h
HS 578T breast = tested on: HS 578T breast
NCI-H522 lung = tested on: NCI-H522 lung
SF-539 CNS = tested on: SF-539 CNS
U251 CNS = tested on: U251 CNS
NCI-H23 lung = tested on: NCI-H23 lung
SK-MEL-5 melanoma = tested on: SK-MEL-5 melanoma
SNB-75 CNS = tested on: SNB-75 CNS
BT-549 breast = tested on: BT-549 breast
HOP-92 NSCLC = tested on: HOP-92 NSCLC
PC-3 prostate = tested on: PC-3 prostate

SMILES | GI50 (HS 578T breast) | TGI (HS 578T breast) | GI50 (NCI-H522 lung) | TGI (NCI-H522 lung) | GI50 (SF-539 CNS) | TGI (SF-539 CNS) | GI50 (U251 CNS) | TGI (U251 CNS) | GI50 (NCI-H23 lung) | TGI (NCI-H23 lung) | GI50 (SK-MEL-5 melanoma) | TGI (SK-MEL-5 melanoma) | GI50 (SNB-75 CNS) | TGI (SNB-75 CNS) | GI50 (BT-549 breast) | TGI (BT-549 breast) | GI50 (HOP-92 NSCLC) | TGI (HOP-92 NSCLC) | GI50 (PC-3 prostate) | TGI (PC-3 prostate)
CN(C)c1ccc(/C=C\c2ccnc3ccccc23)cc1 | 13 µM | > 47.9 µM | 6.4 µM | > 100 µM | 5.17 µM | 25.8 µM | 9.43 µM | > 100 µM | 3.63 µM | 63.4 µM | 2.96 µM | 9.69 µM | 1.44 µM | 8.97 µM | 5.09 µM | 49.9 µM | 6.23 µM | 60.4 µM | 17.9 µM | > 100 µM
Cc1cc(=O)oc2ccc(OC/C=C3\CCC(=O)O3)cc12 | 10.8 µM | 48.9 µM | 1.65 µM | 3.57 µM | 7.95 µM | 25.5 µM | 12.2 µM | 24.6 µM | 10.4 µM | 25.2 µM | 16.4 µM | 32.5 µM | 1.87 µM | 12.3 µM | 7.49 µM | 23.4 µM | 5 µM | 24.4 µM | 3.59 µM | 21.2 µM
c1cc(N[C@@H]2CCNC2)nc(-c2cnc3ccc(-c4cn[nH]c4)cn23)c1 | 1.69 µM | 5.54 µM | 0.916 µM | 3.55 µM | 1.61 µM | 8.17 µM | 3.11 µM | 18.3 µM | 5.07 µM | 35.9 µM | 14.1 µM | 39.4 µM | 1.88 µM | 5.77 µM | 3.06 µM | 8.32 µM | 1.38 µM | 4.51 µM | 4.99 µM | 47.8 µM
O=C1/C(=C/c2ccc(Cl)c(Cl)c2)CN(C(=O)C(Cl)Cl)C/C1=C\c1ccc(Cl)c(Cl)c1 | 0.355 µM | 3.79 µM | 0.27 µM | 1.2 µM | 0.184 µM | 0.444 µM | 0.0371 µM | 0.153 µM | 0.136 µM | 0.567 µM | 0.196 µM | 0.418 µM | 0.174 µM | 0.484 µM | 0.228 µM | 0.701 µM | 0.19 µM | 0.541 µM | 0.0737 µM | 0.712 µM
CC(C)=CCc1cc2c(cc1O)C1=C(C(=O)C3=C(C1=O)S(=O)(=O)CCN3)C(C=C(C)C)O2 (stereo not given) | 1.31 µM | 8.15 µM | 0.568 µM | 1.85 µM | 1.96 µM | 4.02 µM | 1.24 µM | 3.74 µM | 0.7 µM | 4.01 µM | 0.284 µM | 0.66 µM | 1.39 µM | 3.72 µM | 2.31 µM | 4.78 µM | 3.31 µM | 7.61 µM | 1.6 µM | 12.8 µM
COc1cc(/C=C2\C(=O)N(Cc3ccc(Cl)cc3)c3ccccc32)cc(OC)c1OC | 1.65 µM | 11.1 µM | 2.2 µM | 5.93 µM | 4.95 µM | 11.1 µM | 1.75 µM | 3.44 µM | 2.92 µM | 13.5 µM | 3.98 µM | 11.9 µM | 5.31 µM | > 100 µM | 2.51 µM | 11.6 µM | 1.64 µM | 5.74 µM | 2.43 µM | 17.2 µM
